US7625713B2, “Process for identifying a ligand that binds to the NEP binding site for the SMR1 pentapeptide” (Institut Pasteur, priority 2000, dated 2009)
Where a SMILES comes first, the peptide text is derived from it.

Experiments:
NEP = biological target: T1, NEP (Rattus norvegicus, UniProt P07861); test: Met-enkephalinase activity of rat spinal cord slices, Met-enkephalin RIA; type: biochemical; details: 10 μM, fresh spinal cord tissue, 20 min at 25° C.
T1 construct: incubations of membrane and fresh tissue slice preparations from nervous tissues; from tissue; host or cells: dorsal spinal cord of male Wistar rats (fresh slices or 100 000 x g membrane fraction)
T1 sequence (P07861 1-750): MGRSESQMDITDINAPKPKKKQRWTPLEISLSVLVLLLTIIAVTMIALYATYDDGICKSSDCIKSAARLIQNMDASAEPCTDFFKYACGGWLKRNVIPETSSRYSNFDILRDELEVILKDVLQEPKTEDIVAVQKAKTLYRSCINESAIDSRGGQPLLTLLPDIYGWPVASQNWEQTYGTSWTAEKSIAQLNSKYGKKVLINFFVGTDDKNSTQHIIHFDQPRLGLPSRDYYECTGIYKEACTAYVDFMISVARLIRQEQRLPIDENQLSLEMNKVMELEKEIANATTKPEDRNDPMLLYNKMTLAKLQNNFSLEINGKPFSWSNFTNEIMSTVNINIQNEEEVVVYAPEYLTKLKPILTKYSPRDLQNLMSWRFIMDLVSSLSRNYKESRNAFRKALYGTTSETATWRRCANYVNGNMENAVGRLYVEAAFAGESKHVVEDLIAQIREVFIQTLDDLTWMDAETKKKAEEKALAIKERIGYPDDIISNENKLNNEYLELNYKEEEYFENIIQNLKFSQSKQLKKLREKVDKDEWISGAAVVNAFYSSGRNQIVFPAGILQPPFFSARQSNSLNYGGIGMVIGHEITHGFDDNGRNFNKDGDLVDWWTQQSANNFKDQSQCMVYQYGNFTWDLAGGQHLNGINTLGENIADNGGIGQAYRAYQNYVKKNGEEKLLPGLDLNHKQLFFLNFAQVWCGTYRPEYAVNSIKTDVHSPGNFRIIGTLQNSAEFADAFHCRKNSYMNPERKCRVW
Procedure: FIG. 2-A: […] The organs are rapidly removed, dissected on ice, freed of nerve fibers and of adipose tissues and then washed in cold oxygenated glucose- and bicarbonate-containing Krebs Ringer (KRBG) solution, whose composition is the following: 120 mM NaCl-5 mM KCl-1.2 mM KH2PO4-27.5 mM NaHCO3-2.6 mM CaCl2-0.67 mM MgSO4-5.9 mM glucose. The slices of tissues are prepared either manually with the aid of a scalpel (1-2 mm thick), or mechanically with the aid of a “Tissue Chopper” (1 mm thick). Slices are then dispersed into reaction tubes where they are subjected to three successive washes in ice-cold oxygenated KRBG. […] For the experiments of analysis of the NEP peptidase activity, an ex vivo model using incubations of membrane and fresh tissue slice preparations from nervous tissues that are known to be appropriate for exploring NEP peptidase activity: i.e. the dorsal zone of rat spinal cord, was first developed. The metabolism rate of the NEP-sensitive peptides was measured using the both NEP substrates involved in the signaling of the nociceptive response: the neuropeptides Met-enkephalin and Substance P. […] (NEN, 12.5-25 nM) were used. The objective was to measure the NEP-specific endoproteolysis of these substrates. […] Furthermore, for studying the functional role of […] NO: 2), the reaction was carried out in the presence of the SMR1-peptide alone or combined with specific inhibitors of membrane peptidases which could inactivate the […] […] Herein, a competitive RIA system has been used: the quantity of radioactive antigen bound to the antibody decreases in a manner inversely proportional to the quantity of antigen contained in the standard solution or in the sample. […] The activity of enkephalinase NEP is monitored by quantification of the disappearance of the initial Met-enkephalin substrate. […] The radiolabeled antigen is iodinated Met-enkephalin (^125I-Met-Enk enkephalin) with a specific radioactivity estimated at 3000 Ci/mmol. […] After centrifugation, the bound radioactivity of the precipitate is quantified using a gamma-spectrometer.

male SPF Wistar/AF rats = test: Aversive light stimulus avoidance test (ALSAT); type: in vivo, rat; details: 50 μg/kg, I.V.; for Total number of times the two levers were pressed / Number of times AL pressed / Number of times IL pressed: mean ± SEM; for Number of times AL pressed: active lever; for Number of times IL pressed: inactive lever
Procedure: Twenty four male SPF Wistar/AF rats weighing from 300 to 320 g were used. Upon reception, the rats were weighed, marked and distributed, in groups of 3, into F-type polycarbonate cages. The animals were housed in an air-conditioned animal house at a temperature of 22-24° C. Food and drink was available to the rats ad libitum. They were subjected to a 12-hour light/dark cycle (light from 8 pm to 8 am).
After a period of familiarization with the laboratory conditions of one week, the 24 rats were randomly divided into 2 groups (n=12). The rats from the various groups were all handled in the same way and under the same conditions.
The rat is placed in the cage for 20 minutes and the number of times each lever is pressed is counted during the experiment.
This model uses the aversion of the rat to a brightly lit environment. During the familiarization session and the learning session, the rat learns to control the aversive light environment of the test device in the context of operant conditioning: the animal learns to press the active lever in order to obtain periods of darkness.
The learning test is made up over two sessions: • Session 1, familiarization with the experimental device (day 1); • Session 2, learning test (day 2).
The QHNPR (SEQ ID NO: 2) peptide is suspended in a proportion of 500 μg per 5 ml of 0.01 N acetic acid, and then diluted with PBS in order to be administered at the dose of 50 μg/kg, via the i.v. route, in the dorsal caudal vein of the rat, 1 minute before the test.
A two-sided probability unpaired t-test was used to compare the lever-pressing activity of the two groups of rats.
The results are expressed as mean±standard error of the mean (SEM).

In the case of `N=C(N)NCCC[C@H](NC(=O)[C@@H]1CCCN1C(=O)[C@H](CC(N)=O)NC(=O)[C@H](Cc1c[nH]cn1)NC(=O)[C@@H](N)CCC(N)=O)C(=O)O` [sialorphin, Gln-His-Asn-Pro-Arg] (H-QHNPR-OH; N-terminus and C-terminus assumed), the “protection of Met-enkephalin from degradation” value (NEP) is reported as 96%, the “Total number of times the two levers were pressed” value (male SPF Wistar/AF rats; Session 1, 1 minute before the test) is reported as 10.08 ± 1.98 and the “Number of times AL pressed” value (male SPF Wistar/AF rats; Session 1) is reported as 4.83 ± 1.02. For the same compound, the “Number of times IL pressed” value (male SPF Wistar/AF rats; Session 1) was 5.25 ± 1.14, the “Number of times AL pressed” value (male SPF Wistar/AF rats; Session 2) was 2.67 ± 0.47 and the “Number of times IL pressed” value (male SPF Wistar/AF rats; Session 2) was 2.58 ± 0.94. The “Total number of times the two levers were pressed” value (male SPF Wistar/AF rats; Session 2) was 5.25 ± 5.09 and the “Distinction between the levers” value (male SPF Wistar/AF rats; both test sessions) was “no distinction between the two levers”.
